Measured values as given in ChEMBL document CHEMBL3352299, “Antiproliferative 4-(1,2,4-oxadiazol-5-yl)piperidine-1-carboxamides, a new tubulin inhibitor chemotype” (Bioorg Med Chem Lett, 2014).

Key:
DU-145 [1] = assay: Antiproliferative activity against human DU145 cells at 50 uM after 3 days by fluorescence assay; format: functional; conditions: DU-145, 72 h, read-out: GI
DU-145 [2] = assay: Antiproliferative activity against human DU145 cells after 3 days by fluorescence assay; format: functional; conditions: DU-145, 72 h
Tubulin = assay: Displacement of [3H]-colchicine from tubulin (unknown origin) after 10 mins by turbidimetrically; format: protein-complex assay, Homo sapiens
K562 [3] = assay: Induction of mitotic arrest in human K562 cells assessed as mitotic indices at 5 uM by light microscopy; format: functional
K562 [4] = assay: Induction of mitotic arrest in human K562 cells assessed as growth inhibition by light microscopy; format: functional, cell-based

Row | GI50 (DU-145 [2]) [nM] | SMILES | inhibition of growth at 50 µM (DU-145 [1]) [%] | other results
1 | – | O=C(NCC1CC1)N1CCC(c2nc(-c3ccc(F)cc3)no2)CC1 | < 20 | –
2 | 1700 | O=C(NCc1ccsc1)N1CCC(c2nc(COc3ccccc3)no2)CC1 | – | –
3 | – | O=C(NCc1ccsc1)N1CCCC(c2nc(Cc3ccccc3)no2)C1 (centres undefined) | < 20 | –
4 | – | CC(C)Cc1noc(C2CCN(C(=O)NCc3ccccc3)CC2)n1 | < 20 | –
5 | 2800 | O=C(NCc1ccccc1)N1CCC(c2nc(-c3ccc(F)cc3)no2)CC1 | – | IC50 (Tubulin): 1600 nM; Activity (K562 [3]): 72%; IC50 (K562 [4]): 1200 nM
6 | 120 | O=C(NCc1ccsc1)N1CCC(c2nc(Cc3ccccc3)no2)CC1 | – | –
7 | – | O=C(NCc1ccsc1)N1CCCC1c1nc(Cc2ccccc2)no1 (centres undefined) | < 20 | –
8 | 2200 | Cc1ccc(-c2noc(C3CCN(C(=O)NCc4ccco4)CC3)n2)cc1 | – | IC50 (Tubulin): 2300 nM
9 | 9300 | O=C(NCc1ccccc1)N1CCC(c2nc(-c3ccccc3Cl)no2)CC1 | – | IC50 (Tubulin): 2600 nM
10 | 1300 | O=C(NCc1ccc2c(c1)OCO2)N1CCC(c2nc(-c3ccc(F)cc3)no2)CC1 | – | –
11 | 1100 | O=C(NCc1ccoc1)N1CCC(c2nc(-c3ccc(F)cc3)no2)CC1 | – | –
12 | 8600 | O=C(NCc1ccccc1)N1CCC(c2nc(CCN3CCc4ccccc4C3)no2)CC1 | – | –
13 | 3300 | O=C(NCc1ccco1)N1CCC(c2nc(-c3ccc(F)cc3)no2)CC1 | – | –
14 | 950 | Cc1cc(CNC(=O)N2CCC(c3nc(Cc4ccccc4)no3)CC2)nn1C | – | –
15 | 2800 | Cc1cc(CNC(=O)N2CCC(c3nc(COc4ccccc4)no3)CC2)nn1C | – | –
16 | – | O=C(N1CCCCC1)N1CCC(c2nc(-c3ccc(F)cc3)no2)CC1 | < 20 | –
17 | 9800 | O=C(NCCc1c[nH]c2ccccc12)N1CCC(c2nc(-c3ccc(F)cc3)no2)CC1 | – | –
18 | 4400 | COc1cc(OC)cc(-c2noc(C3CCN(C(=O)NCc4ccccc4)CC3)n2)c1 | – | –
19 | 1700 | O=C(NCc1cccs1)N1CCC(c2nc(-c3ccc(F)cc3)no2)CC1 | – | –
20 | 940 | Cc1cc(CNC(=O)N2CCC(c3nc(-c4ccc(F)cc4)no3)CC2)nn1C | – | –
21 | 13600 | O=C(NCCc1ccccc1)N1CCC(c2nc(-c3ccc(F)cc3)no2)CC1 | – | –
22 | 2900 | O=C(NCc1ccccc1)N1CCC(c2nc(-c3ccc(F)cc3Cl)no2)CC1 | – | –
23 | – | COCCNC(=O)N1CCC(c2nc(-c3ccc(F)cc3)no2)CC1 | < 20 | –

Row | GI50 (DU-145 [2]) [nM] | SMILES | inhibition of growth at 50 µM (DU-145 [1]) [%] | other results
24 | – | COC(=O)CNC(=O)N1CCC(c2nc(-c3ccc(F)cc3)no2)CC1 | < 20 | –
25 | 21000 | O=C(N1CCC(c2nc(-c3ccc(F)cc3)no2)CC1)N1CCc2ccccc2C1 | – | –
26 | 1600 | Cc1ccc(-c2noc(C3CCN(C(=O)NCc4ccccc4)CC3)n2)cc1 | – | IC50 (Tubulin): 1100 nM; Activity (K562 [3]): 83%; IC50 (K562 [4]): 550 nM
27 | – | C#CCNC(=O)N1CCC(c2nc(-c3ccc(F)cc3)no2)CC1 | < 20 | –
28 | – | CC(C)(C)NC(=O)N1CCC(c2nc(-c3ccc(F)cc3)no2)CC1 | < 20 | –
29 | 11200 | O=C(NCc1ccccc1)N1CCC(c2nc(CCN3CCOCC3)no2)CC1 | – | –
30 | – | O=C(N1CCC(c2nc(-c3ccc(F)cc3)no2)CC1)N1CCCc2ccccc21 | < 20 | –
31 | 6500 | O=C(NCc1ccsc1)N1CCC(c2nc(Cc3ccccc3)no2)C1 (centres undefined) | – | –
32 | 1900 | O=C(NCc1ccccc1)N1CCC(c2nc(-c3ccccc3)no2)CC1 | – | IC50 (Tubulin): 1800 nM; Activity (K562 [3]): 75%; IC50 (K562 [4]): 1500 nM
33 | 2700 | O=C(NCc1ccco1)N1CCC(c2nc(-c3ccc(Cl)cc3)no2)CC1 | – | IC50 (Tubulin): 2000 nM
34 | 650 | O=C(NCc1ccsc1)N1CCC(c2nc(-c3ccc(F)cc3)no2)CC1 | – | –
35 | 12300 | Cc1ccccc1-c1noc(C2CCN(C(=O)NCc3ccccc3)CC2)n1 | – | –
36 | 9500 | COc1cccc(NC(=O)N2CCC(c3nc(-c4ccc(Cl)cc4)no3)CC2)c1 | – | IC50 (Tubulin): 5300 nM
37 | 1200 | Cc1cccc(-c2noc(C3CCN(C(=O)NCc4ccccc4)CC3)n2)c1 | – | –
38 | – | Cc1noc(C2CCN(C(=O)NCc3ccccc3)CC2)n1 | < 20 | –
39 | – | O=C(NCc1ccsc1)N1CCCCC1c1nc(Cc2ccccc2)no1 (centres undefined) | < 20 | –
40 | – | CCCCNC(=O)N1CCC(c2nc(-c3ccc(F)cc3)no2)CC1 | < 20 | –
41 | 760 | O=C(NCc1ccccc1)N1CCC(c2nc(Cc3ccccc3)no2)CC1 | – | –
42 | 17000 | CN(Cc1ccco1)C(=O)N1CCC(c2nc(-c3ccc(F)cc3)no2)CC1 | – | –
43 | – | O=C(N1CCOCC1)N1CCC(c2nc(-c3ccc(F)cc3)no2)CC1 | < 20 | –
44 | 6000 | O=C(NCc1ccco1)N1CCC(c2nc(-c3ccccc3)no2)CC1 | – | –
45 | – | O=C(N1CCC(c2nc(-c3ccc(F)cc3)no2)CC1)N1CCc2ccccc21 | < 20 | –
46 | 520 | O=C(NCc1ccccc1)N1CCC(c2nc(COc3ccccc3)no2)CC1 | – | –
